In data set [1] the test system is ARE-LUC androgen responsive reporter gene in LNCaP-abl. In words: AR responsive luciferase reporter (ARE-LUC / LB1-LUC) in LNCaP-abl cells. It counts as cell-based. As for the experimental part: LNCaP or LNCaP-abl (ABL) cells were cotransfected with 0.1 μg β-galactosidase and 0.2 μg S37A stabilized β-catenin together with the indicated luciferase reporter constructs; STF16-LUC (β-catenin reporter) and LB1-LUC (AR reporter). […] Luciferase activity was normalized to β-galactosidase expression.
To determine the IC50 for the β-catenin/Wnt-responsive reporter, cells were cotransfected with β-galactosidase (LacZ) and a constitutively active S37A stabilized β-catenin mutant construct together with the reporter construct, STF16-LUC. To determine the IC50 for the AR-responsive construct, cells were cotransfected with LacZ and the AR responsive reporter construct, ARE-LUC. […] B) AR overexpression circumvents C3 repression of AR-responsive transcription. LNCaP cells were cotransfected with 0.1 μg LacZ and 0.2 μg of the AR responsive reporter construct, ARE-LUC, together with 0, 0.05, 0.1 and 0.2 μg of an AR expression vector. […] Luciferase activity was normalized to LacZ expression.
108(15): 5954-63], it had not been determined in prostate cancer cells. […] 69(8): 3332-8].
A general note: In a reporter assay the amount or activity of a reporter protein is the signal.

Data set [2] concerns HCT116 cells. In words: Flow cytometry cell cycle analysis of HCT116 cells. It counts as cell-based. Particulars: HCT116, 16 hrs, FIG. 9. As for the experimental part: In order to test the inhibitory effect of candidate compounds on the transcription of endogenous Wnt/β-cat target genes in HCT116 cells, lysates were prepared from cells that were either treated with candidate small molecules or DMSO control. […] Cell cycle arrest of compound treated HCT116 cells was further confirmed by the reduced number of phosphorylated Histone3 (PH3) positive cells, when cultured in the presence of candidate compounds (FIG. 10).
Flow Cytometry analysis was performed on HCT116 cells treated with candidate compounds for 16 hrs per standard protocols. Briefly, compound treated cells were harvested and washed in 1×PBS followed by fixation in 70% Ethanol at 4° C. for 16 hrs. Cells were then washed in 1×PBS and treated with RNAse at 37° C. for 30′. Following extensive washes in 1×PBS, cellular DNA was stained with 500 ug/ml of Propidium Iodide at room temperature for 10′. Cells were washed again in 1×PBS and analysed by flow cytometry on a FACScalibur machine (Beckson Dickinson) at the NYU flow cytometry core facility.
A general note: In flow cytometry, cells or beads pass a laser one at a time.

In data set [3] the test system is LNCaP-abl tumors. In words: LNCaP-abl xenograft model of castration-resistant prostate cancer in nude mice. Type of data set: in vivo. Particulars: 100 mg/kg daily, intraperitoneal then intratumor injection, FIG. 23. How it is done: Tumor volumes were measured twice weekly.
The cell types for xenograft studies include LNCaP, LNCaP-abl and VCaP, which have all been previously utilized for xenograft studies and are able to recur following castration [Korenchuk et al., In Vivo, 2001. 15(2): 163-8; Culig et al., Br J Cancer, 1999. 81(2): 242-51; Graff et al., J Biol Chem, 2000. 275(32): 24500-5]. VCaP cells harbor a wild type androgen receptor and are androgen-dependent for growth [van Bokhoven et al., Prostate, 2003. 57(3): 205-25]. Other characteristics of cells to be considered in such experiments include the mutational status of AR, pTEN, p53, ETS fusion, and the year derived. Following determination of the MTD, 5×10^6 cells are mixed with an equal volume of Matrigel (BD Biosciences) and injected subcutaneously into the right and left flank of a BALB/c nu/nu outbred mouse. […] To assay growth, tumors are measured with Vernier calipers, and the total volume determined by using the formula 0.52×width×height×depth. Tumor growth is measured twice weekly and animals are also weighed twice weekly to assess toxicity.
Methods: Rapidly cycling LNCaP-abl cells (15×10^6) were mixed with an equal volume of Matrigel and injected subcutaneously into the flank region of nude male mice. […] To assess growth, tumors were measured twice weekly with Vernier calipers, and the total volume was determined.

Data set [4] has as its system HEK 293 cells. In words: PARP cleavage immunoblot, HEK293. It counts as cell-based. Particulars: HEK 293, 20 μM, 72 hr. (In general: Immunoblotting shows a protein as a band on a membrane.)

pIC50: −log10 of the molar value.

The term pIC50 denotes the negative decadic logarithm of the IC50, by convention in mol/L. Read a high pIC50 as a small IC50. Molecule `CCc1ccc(-c2nc(CSCC(=O)NCCc3ccccc3)c(C)o2)cc1` [Compound C3] had a negative-log IC50 (pIC50) in data set [1] (LNCaP-abl (second of two values)) of 5.79. For the same molecule, in data set [1] (LNCaP-abl, 20 uM, 24 hr), the “AR reporter gene activity (LB1-LUC)” value was “inhibits”. For the same molecule, the cell cycle effect result in data set [2] is reported as “G0/G1 arrest”. Moreover, in data set [3], the tumor volume entry is reported as “reduced tumor volume to a statistically significant degree”. Further, the “apoptosis (PARP cleavage) in 293 cells” value in data set [4] is “does not induce apoptosis”.

For the origin of these results see patent US9173871B2, “Oxazole and thiazole compounds as beta-catenin modulators and uses thereof” (New York University, priority 2008, dated 2015).
